Measurements as given in PubChem BioAssay (NCI).
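Protocol summary: plate cells (96-well), add compound at 5 concentrations, incubate 48 h, interpolate endpoints linearly. Abbreviation: GI50, concentration required for 50% inhibition of growth. At the TGI there is no net growth.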

How the values were obtained:
Test in all cases: DTP human tumour cell line panel, 48 h; in the data active means GI50 below about 0.43 µM; inactive means the rest
[1] = test system: NCI-H522 lung
[2] = test system: KM12 colon
[3] = test system: NCI-H23 lung
[4] = test system: NCI-H460 lung
[5] = test system: RPMI-8226 leukemia
[6] = test system: OVCAR-3 ovarian
[7] = test system: EKVX NSCLC
[8] = test system: UO-31 renal
[9] = test system: COLO 205 colon
[10] = test system: CAKI-1 renal
[11] = test system: MDA-MB-435
[12] = test system: BT-549 breast
[13] = test system: SNB-19 CNS
[14] = test system: OVCAR-5 ovarian
[15] = test system: LOX IMVI melanoma
[16] = test system: SF-268 CNS
[17] = test system: HCC-2998 colon
[18] = test system: SK-MEL-5 melanoma
[19] = test system: NCI/ADR-RES ovarian
[20] = test system: SK-MEL-28 melanoma
[21] = test system: ACHN renal
[22] = test system: UACC-257 melanoma
[23] = test system: SW-620 colon
[24] = test system: A549 NSCLC
[25] = test system: RXF 393 renal
[26] = test system: HT29 colon
[27] = test system: SF-295 CNS
[28] = test system: OVCAR-8 ovarian
[29] = test system: IGROV1 ovarian
[30] = test system: CCRF-CEM leukemia
[31] = test system: M14 melanoma
[32] = test system: HCT-116 colon
[33] = test system: SK-OV-3 ovarian
[34] = test system: MOLT-4 leukemia
[35] = test system: PC-3 prostate
[36] = test system: T-47D breast
[37] = test system: SF-539 CNS
[38] = test system: HOP-62 NSCLC
[39] = test system: HCT-15 colon
[40] = test system: HS 578T breast
[41] = test system: DU-145 prostate
[42] = test system: TK-10 renal
[43] = test system: UACC-62 melanoma
[44] = test system: SNB-75 CNS
[45] = test system: OVCAR-4 ovarian
[46] = test system: U251 CNS
[47] = test system: 786-0 renal
[48] = test system: MDA-MB-231 breast
[49] = test system: SN12C renal
[50] = test system: SK-MEL-2 melanoma
[51] = test system: HOP-92 NSCLC
[52] = test system: MCF7 breast

O=C(Cc1csc2nc(-c3ccc(Br)cc3)cn12)N/N=C/c1ccccc1
49.3 µM: TGI [17]
58.2 µM: TGI [48]
52.5 µM: TGI [7]
32.1 µM: TGI [46]
62.8 µM: TGI [23]
21.2 µM: TGI [32]
82.2 µM: TGI [10]
40.9 µM: TGI [24]
26.9 µM: TGI [18]
45.1 µM: TGI [41]
39.4 µM: TGI [37]
51.8 µM: TGI [11]
32.7 µM: TGI [29]
49.1 µM: TGI [12]
38.8 µM: TGI [25]
89.2 µM: TGI [44]
37.4 µM: TGI [27]
32 µM: TGI [22]
39.9 µM: TGI [49]
37 µM: TGI [34] | TGI [51]
67.6 µM: TGI [19]
> 100 µM: TGI [2] | TGI [4] | TGI [5] | TGI [8] | TGI [9] | TGI [13] | TGI [14] | TGI [16] | TGI [20] | TGI [26] | TGI [30] | TGI [31] | TGI [33] | TGI [35] | TGI [36] | TGI [39] | TGI [45] | TGI [47] | TGI [50] | TGI [52]
25.6 µM: TGI [21]
51.1 µM: TGI [40]
46.3 µM: TGI [6]
61.4 µM: TGI [3]
90.8 µM: TGI [15]
20.5 µM: TGI [28]
inactive: GI50 [1] 14.2 µM | GI50 [2] 26.1 µM | GI50 [3] 12.6 µM | GI50 [4] 53 µM | GI50 [5] 7.38 µM | GI50 [6] 24.1 µM | GI50 [7] 6.95 µM | GI50 [8] 58.2 µM | GI50 [9] 66.1 µM | GI50 [10] 30.3 µM | GI50 [11] 12.1 µM | GI50 [12] 13 µM | GI50 [13] 44.1 µM | GI50 [14] 30.7 µM | GI50 [15] 12.2 µM | GI50 [16] > 100 µM | GI50 [17] 13.2 µM | GI50 [18] 5.66 µM | GI50 [19] 13.6 µM | GI50 [20] > 100 µM | GI50 [21] 10.8 µM | GI50 [22] 6.21 µM | GI50 [23] 18.8 µM | GI50 [24] 13.5 µM | GI50 [25] 14.5 µM | GI50 [26] 44 µM | GI50 [27] 12.1 µM | GI50 [28] 2.36 µM | GI50 [29] 11.2 µM | GI50 [30] 17.3 µM | GI50 [31] 20.9 µM | GI50 [32] 9.32 µM | GI50 [33] 65.7 µM | GI50 [34] 6.69 µM | GI50 [35] 20.2 µM | GI50 [36] 36.9 µM | GI50 [37] 16.2 µM | GI50 [38] 15.3 µM | GI50 [39] 16.3 µM | GI50 [40] 16.4 µM | GI50 [41] 14.6 µM | GI50 [42] 14.1 µM | GI50 [43] 11.6 µM | GI50 [44] 31.8 µM | GI50 [45] 47.1 µM | GI50 [46] 12.7 µM | GI50 [47] 27.7 µM | GI50 [48] 13 µM | GI50 [49] 13.1 µM | GI50 [50] 33 µM | GI50 [51] 12.2 µM | GI50 [52] 75.9 µM
39.8 µM: TGI [38]
28.2 µM: TGI [43]
60.8 µM: TGI [1]
42.1 µM: TGI [42]
